In US8273774B2, “Phenoxypyridinylamide compounds” (AstraZeneca AB, priority 2008, dated 2012):

Each compound was assayed against recombinant Human Phosphodiesterase B2 (PDE4B2) (Homo sapiens, UniProt Q07343) (assay: Human Phosphodiesterase B2 Radiometric Assay). Conditions: 0.1 μg/mL recombinant PDE4B2; preincubated at 30 C for 30 min; [3H]cyclic AMP 8 nM, stopped after 20 min; yttrium silicate SPA beads; read-out: PDE4B2 pIC50 (converted).
Format: biochemical
Outline: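 Compounds preincubated 30 min at 30 C with 0.1 μg/mL recombinant PDE4B2 in 50 mM HEPES pH 7.5, 8.3 mM MgCl2, 1.7 mM EGTA, 0.01% Brij 35.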

Sequence of recombinant Human Phosphodiesterase B2 (PDE4B2) (Q07343 1-564 isoform Q07343-2): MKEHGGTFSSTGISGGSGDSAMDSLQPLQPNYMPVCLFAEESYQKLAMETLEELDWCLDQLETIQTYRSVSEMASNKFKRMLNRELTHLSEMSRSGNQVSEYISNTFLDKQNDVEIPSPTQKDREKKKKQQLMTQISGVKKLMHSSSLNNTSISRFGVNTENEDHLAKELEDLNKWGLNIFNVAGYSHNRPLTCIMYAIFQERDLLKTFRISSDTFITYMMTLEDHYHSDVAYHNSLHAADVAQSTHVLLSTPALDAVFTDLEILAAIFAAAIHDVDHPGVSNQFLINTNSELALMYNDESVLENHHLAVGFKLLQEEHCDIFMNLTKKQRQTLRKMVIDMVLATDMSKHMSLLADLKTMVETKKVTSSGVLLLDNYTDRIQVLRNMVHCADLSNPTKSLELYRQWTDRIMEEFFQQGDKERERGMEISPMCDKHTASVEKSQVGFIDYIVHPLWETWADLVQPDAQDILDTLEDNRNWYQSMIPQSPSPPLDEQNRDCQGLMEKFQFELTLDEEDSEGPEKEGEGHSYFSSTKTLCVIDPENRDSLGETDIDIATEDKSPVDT

Row | Structure (SMILES) | IC50 [nM]
1 | Cn1ccc(C(=O)N[C@H]2CC[C@@H](NC(=O)c3cc(F)cnc3Oc3cccc(-c4ccc(CN5CCSCC5)cc4CN4CCOCC4)c3)CC2)n1 [Example 199, 5-fluoro-N-((1s,4s)-4-(1-methyl-1H-pyrazole-3-carboxamido)cyclo-hexyl)-2-(2′-(morpholinomethyl)-4′-(thiomorpholinomethyl)biphenyl-3-yloxy)nicotinamide] | 0.02
2 | CC(C)NC(=O)CN1CCN(Cc2ccc(-c3cccc(Oc4ncc(F)cc4C(=O)N[C@H]4CC[C@@H](NC(=O)c5cc6n(n5)CCCC6)CC4)c3)c(CN3CCOCC3)c2)CC1 [Example 200, N-((1s,4s)-4-(5-fluoro-2-(4′-((4-(2-(isopropylamino)-2-oxoethyl)piperazin-1-yl)methyl)-2′-(morpholinomethyl)biphenyl-3-yloxy)nicotinamido)cyclohexyl)-4,5,6,7-tetrahydropyrazolo[1,5-a]pyridine-2-carboxamide] | 0.0251
3 | CC(C)NC(=O)CN1CCN(Cc2ccc(-c3cccc(Oc4ncc(F)cc4C(=O)N[C@H]4CC[C@@H](NC(=O)c5cccc6[nH]cnc56)CC4)c3)c(CN3CCOCC3)c2)CC1 [Example 201, N-((1s,4s)-4-(5-fluoro-2-(4′-((4-(2-(isopropylamino)-2-oxoethyl)piperazin-1-yl)methyl)-2′-(morpholinomethyl)biphenyl-3-yloxy)nicotinamido)cyclohexyl)-1H-benzo[d]imidazole-4-carboxamide] | 0.0158
4 | C[C@@H]1CN(Cc2ccc(-c3cccc(Oc4ncc(F)cc4C(=O)N[C@H]4CC[C@@H](NC(=O)c5cccc6[nH]cnc56)CC4)c3)c(CN3CCSCC3)c2)C[C@H](C)N1 [Example 202, N-((1s,4s)-4-(2-(4′-(((3S,5R)-3,5-dimethylpiperazin-1-yl)methyl)-2′-(thiomorpholinomethyl)biphenyl-3-yloxy)-5-fluoronicotinamido)cyclohexyl)-1H-benzo[d]imidazole-4-carboxamide] | 0.0126
